According to patent US6136852A, “3,4-disubstituted phenylethanolaminotetralincarboxylic acid derivatives” (Kissei Pharmaceutical Co., Ltd., priority 1996, dated 2000):

Key:
β2 -adrenergic receptor = biological target: T1, β2 -adrenergic receptor (Rattus norvegicus, UniProt P10608); test: Action of drugs on the spontaneous contractions of isolated pregnant rat myometrium (β2-adrenergic receptor stimulating activity); type: cell-based; details: isolated pregnant SD rat uterus (pregnancy day 21), Magnus method; read-out: EC50 value (activity to relax 50% of the spontaneous contractions of rat myometrium)
T1 construct: The uteri of pregnant SD rats (pregnancy day 21) were isolated; from tissue; host or cells: longitudinal uterine muscle strips of pregnant SD rats (day 21)
Experimental: Thus, the compounds of the present invention have markedly potent β2 -adrenergic receptor stimulating effect and therefore are remarkably useful as β2 -adrenergic receptor stimulating agents.
Action of Drugs on the Spontaneous Contractions of Isolated Pregnant Rat Myometrium
The uteri of pregnant SD rats (pregnancy day 21) were isolated and longitudinal uterine muscle strips (about 15 mm in length and about 5 mm in width) free from the basal plate were prepared. The experiment was conducted according to the Magnus method. The sample with a tension of 1 g was exposed to Locke-Ringer solution maintained at 37° C. and gassed with a mixture of 95% of oxygen and 5% of carbon dioxide. The spontaneous contractions of the myometrium were induced isometrically via a pressure transducer and recorded on a rectigram. The drug efficacy was evaluated as 50% inhibitory drug concentration (i.e., EC50 value) by comparing the total degree of uterine contraction during 5 minutes before the addition of the drug with the total degree of uterine contraction during 5 minutes after the addition of the drug.

β1 -adrenergic receptor = test: Action of drugs on the atrial contractions of isolated rat atrium (β1-adrenergic receptor stimulating activity); type: cell-based; details: isolated SD male rat atrium, Magnus method
Experimental: Thus, the compounds of the present invention have markedly weak β1 -adrenergic receptor stimulating effect in comparison with the aforementioned β2 -adrenergic receptor stimulating effect.
Action of Drugs on the Atrial Contractions of Isolated Atrium
The atria of SD male rats (350 to 400 g in body weight) were isolated and the experiment was conducted according to the Magnus method. The sample with a tension of 1 g was exposed to Krebs-Henseleit solution maintained at 37° C. and gassed with a mixture of 95% of oxygen and 5% of carbon dioxide. The atrial contraction was induced isometrically via a pressure transducer and recorded on a rectigram. After addition of the drug, its efficacy was evaluated as drug concentration that increased 20 beats per minute of heart rate (i.e., EC20 value).

female ICR mice = test: Acute toxicity test; type: in vivo; details: intravenous, 30 mg/kg in saline
Experimental: To 3 female ICR mice of 4 weeks age was administered intravenously ethyl 2-[(2S)-2-[[(2RS)-2-hydroxy-2-(4-hydroxy-3-hydroxymethylphenyl)ethyl]amino]-1,2,3,4-tetrahydronaphthalen-7-yloxy]acetate dissolved in saline at dose of 30 mg/kg.

T1 sequence (P10608 whole entry): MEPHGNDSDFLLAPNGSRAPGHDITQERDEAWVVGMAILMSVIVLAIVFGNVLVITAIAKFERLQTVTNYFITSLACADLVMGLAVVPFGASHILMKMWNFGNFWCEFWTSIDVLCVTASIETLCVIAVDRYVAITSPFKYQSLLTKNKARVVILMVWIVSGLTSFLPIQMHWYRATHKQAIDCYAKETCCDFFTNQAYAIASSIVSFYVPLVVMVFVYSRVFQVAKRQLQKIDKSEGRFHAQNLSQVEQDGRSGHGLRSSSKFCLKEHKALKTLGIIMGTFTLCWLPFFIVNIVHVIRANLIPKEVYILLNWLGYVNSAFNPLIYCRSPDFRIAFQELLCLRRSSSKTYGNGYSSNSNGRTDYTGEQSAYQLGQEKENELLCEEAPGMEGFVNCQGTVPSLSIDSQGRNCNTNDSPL

SMILES: CCOC(=O)COc1ccc2c(c1)C[C@@H](NCC(O)c1ccc(O)c(CO)c1)CC2 (mixture of isomers) [Compound 4, Ethyl 2-[(2S)-2-[[(2RS)-2-hydroxy-2-(4-hydroxy-3-hydroxymethylphenyl)ethyl]amino]-1,2,3,4-tetrahydronaphthalen-7-yloxy]acetate]
- EC50 (β2 -adrenergic receptor): 1.1 nM
- EC20 value (concentration that increases 20 beats per minute of rat heart rate) (β1 -adrenergic receptor): 1.1×10^-6 mol concentration
- death of animals during 24 hours after the administration (female ICR mice): No death of animals was observed
